# Results as given in patent US8741931B2, “Kinase inhibitors” (priority 2007, dated 2014).
# pKi: −log10 of the molar value.
# What was measured:
# Assay type in all cases: biochemical
# PKC delta kinase = PKC delta kinase (Homo sapiens, UniProt Q05655); assay: PKC Delta (coupled enzyme assay); details: 150 μM ATP, 46 nM PKC delta; read-out: Ki PKC delta
# Procedure: (§1) An assay buffer solution was prepared which consisted of 100 mM HEPES (pH 7.5), 10 mM MgCl2, 25 mM NaCl, 0.1 mM EDTA and 0.01% Brij. […] To 16 μL of this enzyme buffer, in a 384 well plate, was added 1 μL of VRT stock solution in DMSO. The mixture was allowed to equilibrate for 10 mins at 30° C. […] Ki values were calculated from initial rate data by non-linear regression using the Prism software package (Prism 4.0a, Graphpad Software, San Diego, Calif.).
# PKC alpha kinase = PKC alpha kinase (Homo sapiens, UniProt P17252); assay: PKC Alpha (coupled enzyme assay); details: 130 μM ATP, 4.5 nM PKC alpha
# Procedure: as §1, with “EDTA, 100 μM CaCl2” for “EDTA”
# PKC theta kinase = PKC theta kinase (Homo sapiens, UniProt Q04759); assay: PKC Theta I (coupled enzyme assay, absorbance at 340 nm); details: 240 μM ATP, 18 nM PKC theta, absorbance read out
# Chain of PKC theta kinase (Q04759 whole entry): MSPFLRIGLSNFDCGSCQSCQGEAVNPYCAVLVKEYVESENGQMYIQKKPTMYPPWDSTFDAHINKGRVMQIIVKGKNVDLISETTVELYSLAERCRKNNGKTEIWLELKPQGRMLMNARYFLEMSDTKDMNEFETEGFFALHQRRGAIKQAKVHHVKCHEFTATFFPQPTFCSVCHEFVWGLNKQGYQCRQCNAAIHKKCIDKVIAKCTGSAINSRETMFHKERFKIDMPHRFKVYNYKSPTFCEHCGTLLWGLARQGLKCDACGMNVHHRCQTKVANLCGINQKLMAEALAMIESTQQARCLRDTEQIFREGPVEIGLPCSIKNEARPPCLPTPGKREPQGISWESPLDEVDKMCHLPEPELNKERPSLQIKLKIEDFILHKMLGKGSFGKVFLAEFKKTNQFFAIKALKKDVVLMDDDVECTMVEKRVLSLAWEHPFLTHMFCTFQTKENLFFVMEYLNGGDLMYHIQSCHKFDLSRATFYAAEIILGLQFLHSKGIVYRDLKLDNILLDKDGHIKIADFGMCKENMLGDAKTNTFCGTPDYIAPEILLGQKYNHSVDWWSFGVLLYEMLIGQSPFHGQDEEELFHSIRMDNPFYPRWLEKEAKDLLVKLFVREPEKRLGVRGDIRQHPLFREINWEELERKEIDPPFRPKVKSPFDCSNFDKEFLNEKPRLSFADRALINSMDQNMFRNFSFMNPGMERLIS
# Procedure: as §1, with “To 60” for “To 16”, “added 2” for “added 1”
# Chain of PKC delta kinase (Q05655 whole entry): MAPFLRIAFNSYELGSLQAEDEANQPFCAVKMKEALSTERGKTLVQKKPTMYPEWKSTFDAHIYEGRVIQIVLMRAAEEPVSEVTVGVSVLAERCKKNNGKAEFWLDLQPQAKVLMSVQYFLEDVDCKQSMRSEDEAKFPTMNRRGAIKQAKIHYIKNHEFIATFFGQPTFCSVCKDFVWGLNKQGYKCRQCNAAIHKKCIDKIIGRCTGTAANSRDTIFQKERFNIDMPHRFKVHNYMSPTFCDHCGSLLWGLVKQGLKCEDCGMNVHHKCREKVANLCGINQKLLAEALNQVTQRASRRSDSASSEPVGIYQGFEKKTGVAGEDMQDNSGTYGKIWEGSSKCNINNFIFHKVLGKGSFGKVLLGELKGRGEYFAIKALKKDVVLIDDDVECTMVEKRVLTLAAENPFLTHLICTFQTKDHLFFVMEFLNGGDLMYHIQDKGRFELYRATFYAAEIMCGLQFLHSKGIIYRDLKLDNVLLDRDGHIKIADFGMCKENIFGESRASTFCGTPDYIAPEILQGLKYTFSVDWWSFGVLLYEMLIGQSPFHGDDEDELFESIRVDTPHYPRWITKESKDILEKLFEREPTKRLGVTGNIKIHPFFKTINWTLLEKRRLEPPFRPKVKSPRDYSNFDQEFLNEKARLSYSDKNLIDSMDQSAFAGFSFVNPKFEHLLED
SMILES,pKi (PKC delta kinase),pKi (PKC alpha kinase),pKi (PKC theta kinase)
N#CCC(=O)N1CCCN(c2cccc(C(=O)c3cccnc3N)n2)CC1 [compound 22],,,5.55 to 6.30
Nc1ncccc1C(=O)c1nc(OCC2(N)CCCC2)ccc1C(F)(F)F [compound 438],5.55 to 6.30,< 5.55,5.55 to 6.30
Nc1ncccc1C(=O)c1cccc(N2CCCN(C(=O)Cc3cccc(O)c3)CC2)n1 [compound 77],,,5.55 to 6.30
Nc1ncccc1C(=O)c1nc(N2CCNC(CC(F)(F)F)C2)ccc1C(F)(F)F (stereo not drawn) [compound 491],5.55 to 6.30,< 5.55,
Nc1ncc(Br)cc1C(=O)c1cccc(N2CCCN(CCc3ccccc3)CC2)n1 [compound 114],,,5.55 to 6.30
Nc1ncccc1C(=O)c1nc(NCC2CCC(N)CC2)ccc1C(F)(F)F (stereo not drawn) [compound 460],5.55 to 6.30,< 5.55,
NCC1CCCC(CNc2ccc(C(F)(F)F)c(C(=O)c3cccnc3N)n2)C1 (stereo not drawn) [compound 429],6.30 to 7.30,< 5.55,
C=Cc1ccc(N2CCN[C@H](c3ccccc3)C2)nc1C(=O)c1cccnc1N [compound 445],5.55 to 6.30,5.55 to 6.30,
Cc1ccc(CC(=O)N2CCCN(c3cccc(C(=O)c4cc(Br)cnc4N)n3)CC2)cc1 [compound 74],,,5.55 to 6.30
CCC[C@H]1CN(c2ccc(C(F)(F)F)c(C(=O)c3cccnc3N)n2)C[C@@H](c2ccccc2)N1 [compound 481],< 5.55,< 5.55,5.55 to 6.30
Nc1ncc(Cl)cc1C(=O)c1nc(N2CCNCC2)ccc1C(F)(F)F [compound 495],6.30 to 7.30,> 7.30,
CC(C)(CN)CNc1ccc(C(F)(F)F)c(C(=O)c2cccnc2N)n1 [compound 425],6.30 to 7.30,5.55 to 6.30,
CC(C)C[C@H]1CN(c2ccc(C(F)(F)F)c(C(=O)c3cccnc3N)n2)C[C@H](C)N1 [compound 483],5.55 to 6.30,5.55 to 6.30,
Nc1ncccc1C(=O)c1nc(N2CCN[C@H](c3ccccc3)C2)ccc1C(F)(F)F [compound 447],5.55 to 6.30,5.55 to 6.30,
CC(C)C[C@H]1CN(c2cc(C(=O)c3cccnc3N)c(-c3ccco3)cn2)CCN1 [compound 428],< 5.55,< 5.55,5.55 to 6.30
CC(C)(C)OC(=O)NC1CCN(c2cccc(C(=O)c3cc(Br)cnc3N)n2)CC1 [compound 135],,,5.55 to 6.30
Cc1ccc(-c2ccc(N3CCNC(c4ccccc4)C3)nc2C(=O)c2cccnc2N)o1 (stereo not drawn) [compound 469],6.30 to 7.30,5.55 to 6.30,
Nc1ncccc1C(=O)c1cccc(N2CCCN(C(=O)Cc3ccccc3Cl)CC2)n1 [compound 29],,,5.55 to 6.30

# Other lines, results leading:
pKi (PKC delta kinase),pKi (PKC alpha kinase),pKi (PKC theta kinase),SMILES
< 5.55,< 5.55,5.55 to 6.30,CC(Nc1ccc(C(F)(F)F)c(C(=O)c2cccnc2N)n1)[C@@H](O)c1ccccc1 (stereo partly drawn) [compound 430]
,,5.55 to 6.30,Cc1ccsc1CN1CCCN(c2cccc(C(=O)c3cc(Br)cnc3N)n2)CC1 [compound 139]
,,5.55 to 6.30,CC(C)(C)N1CCN(c2cccc(C(=O)c3cccnc3N)n2)CC1 [compound 88]
,,5.55 to 6.30,CC(C)(C)OC(=O)N1CCCN(c2nccc(C(=O)c3cccnc3N)n2)CC1 [compound 110]
,,5.55 to 6.30,CC(C)(C)CC(=O)N1CCCN(c2cccc(C(=O)c3cccnc3N)n2)CC1 [compound 26]
,,5.55 to 6.30,Nc1ncc(Br)cc1C(=O)c1cccc(N2CCCN(C(=O)Cc3ccccc3)CC2)n1 [compound 72]
5.55 to 6.30,< 5.55,5.55 to 6.30,CC[C@H]1CN(c2ccc(C(F)(F)F)c(C(=O)c3cccnc3N)n2)C[C@H](CC(C)C)N1 [compound 489]
,,5.55 to 6.30,Cc1ccoc1C(=O)N1CCCN(c2cccc(C(=O)c3cccnc3N)n2)CC1 [compound 91]
,,5.55 to 6.30,CN(C)C1CCN(c2cccc(C(=O)c3cccnc3N)n2)CC1 [compound 137]
5.55 to 6.30,< 5.55,5.55 to 6.30,CCC[C@H]1CN(c2ccc(C(F)(F)F)c(C(=O)c3cccnc3N)n2)C[C@H](CC(C)C)N1 [compound 493]
,,5.55 to 6.30,Nc1ncc(Br)cc1C(=O)c1cccc(N2CCCN(Cc3ccccc3)CC2)n1 [compound 99]
< 5.55,< 5.55,5.55 to 6.30,CC[C@@H]1CN(c2ccc(C(F)(F)F)c(C(=O)c3cccnc3N)n2)C[C@H](C(C)C)N1 [compound 472]
< 5.55,< 5.55,5.55 to 6.30,CC(C)C1OC(=O)N2CCN(c3ccc(C(F)(F)F)c(C(=O)c4cccnc4N)n3)CC12 (stereo not drawn) [compound 453]
< 5.55,< 5.55,5.55 to 6.30,CC(C)C[C@H]1CN(c2ccc(C#CC(C)(C)O)c(C(=O)c3cccnc3N)n2)CCN1 [compound 467]
< 5.55,< 5.55,5.55 to 6.30,Nc1ncccc1C(=O)c1nc(NCCO)ccc1C(F)(F)F [compound 423]
< 5.55,,5.55 to 6.30,Nc1ncccc1C(=O)c1cccc(N2CCCN(C(=O)c3cccs3)CC2)n1 [compound 90]
< 5.55,< 5.55,5.55 to 6.30,CC(C)[C@H]1CN(c2ccc(C(F)(F)F)c(C(=O)c3cccnc3N)n2)C[C@@H](c2ccccc2)N1 [compound 449]
,,5.55 to 6.30,CN1CCC(N2CCN(c3cccc(C(=O)c4cc(Br)cnc4N)n3)CC2)CC1 [compound 101]
,,5.55 to 6.30,CC(C)(C)C(=O)N1CCCN(c2cccc(C(=O)c3cc(Br)cnc3N)n2)CC1 [compound 73]
